This note sets out measurements from ChEMBL document CHEMBL5465560, “Selectivity Literature for EUbOPEN Chemogenomic Library” (2024).

Usually IC50 stands for the concentration at which inhibition is half-maximal. A lower IC50 goes with higher potency.

For one test, the target named is Aurora kinase A (Homo sapiens, UniProt O14965). Briefly: Selectivity interaction (Radiometric kinase assay (using 10 uM ATP)) EUB0000601a STK6.
In test [1] the target is T1, Serine/threonine-protein kinase RIO3 (Homo sapiens) (UniProt O14730).
T1 sequence (whole entry): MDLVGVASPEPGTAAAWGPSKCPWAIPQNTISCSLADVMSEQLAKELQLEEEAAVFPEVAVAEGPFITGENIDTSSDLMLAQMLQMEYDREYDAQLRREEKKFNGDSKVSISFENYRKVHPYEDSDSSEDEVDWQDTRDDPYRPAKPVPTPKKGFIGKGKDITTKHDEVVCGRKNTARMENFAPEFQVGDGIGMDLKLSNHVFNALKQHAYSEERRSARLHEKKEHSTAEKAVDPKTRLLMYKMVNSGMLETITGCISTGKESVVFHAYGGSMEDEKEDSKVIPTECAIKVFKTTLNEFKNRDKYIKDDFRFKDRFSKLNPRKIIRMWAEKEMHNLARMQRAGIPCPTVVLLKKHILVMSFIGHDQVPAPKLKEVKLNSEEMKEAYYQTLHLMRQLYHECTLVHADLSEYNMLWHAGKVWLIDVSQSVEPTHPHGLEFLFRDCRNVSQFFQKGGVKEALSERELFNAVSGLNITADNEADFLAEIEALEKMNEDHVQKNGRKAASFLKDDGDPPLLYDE
Briefly: Selectivity interaction (KinomeScan (DiscoverX)) EUB0001079a RIOK3. Particulars: at 1 µM.

Test [2] has as its target T2, Serine/threonine-protein kinase Nek10 (Homo sapiens) (UniProt Q6ZWH5).
T2 sequence (whole entry): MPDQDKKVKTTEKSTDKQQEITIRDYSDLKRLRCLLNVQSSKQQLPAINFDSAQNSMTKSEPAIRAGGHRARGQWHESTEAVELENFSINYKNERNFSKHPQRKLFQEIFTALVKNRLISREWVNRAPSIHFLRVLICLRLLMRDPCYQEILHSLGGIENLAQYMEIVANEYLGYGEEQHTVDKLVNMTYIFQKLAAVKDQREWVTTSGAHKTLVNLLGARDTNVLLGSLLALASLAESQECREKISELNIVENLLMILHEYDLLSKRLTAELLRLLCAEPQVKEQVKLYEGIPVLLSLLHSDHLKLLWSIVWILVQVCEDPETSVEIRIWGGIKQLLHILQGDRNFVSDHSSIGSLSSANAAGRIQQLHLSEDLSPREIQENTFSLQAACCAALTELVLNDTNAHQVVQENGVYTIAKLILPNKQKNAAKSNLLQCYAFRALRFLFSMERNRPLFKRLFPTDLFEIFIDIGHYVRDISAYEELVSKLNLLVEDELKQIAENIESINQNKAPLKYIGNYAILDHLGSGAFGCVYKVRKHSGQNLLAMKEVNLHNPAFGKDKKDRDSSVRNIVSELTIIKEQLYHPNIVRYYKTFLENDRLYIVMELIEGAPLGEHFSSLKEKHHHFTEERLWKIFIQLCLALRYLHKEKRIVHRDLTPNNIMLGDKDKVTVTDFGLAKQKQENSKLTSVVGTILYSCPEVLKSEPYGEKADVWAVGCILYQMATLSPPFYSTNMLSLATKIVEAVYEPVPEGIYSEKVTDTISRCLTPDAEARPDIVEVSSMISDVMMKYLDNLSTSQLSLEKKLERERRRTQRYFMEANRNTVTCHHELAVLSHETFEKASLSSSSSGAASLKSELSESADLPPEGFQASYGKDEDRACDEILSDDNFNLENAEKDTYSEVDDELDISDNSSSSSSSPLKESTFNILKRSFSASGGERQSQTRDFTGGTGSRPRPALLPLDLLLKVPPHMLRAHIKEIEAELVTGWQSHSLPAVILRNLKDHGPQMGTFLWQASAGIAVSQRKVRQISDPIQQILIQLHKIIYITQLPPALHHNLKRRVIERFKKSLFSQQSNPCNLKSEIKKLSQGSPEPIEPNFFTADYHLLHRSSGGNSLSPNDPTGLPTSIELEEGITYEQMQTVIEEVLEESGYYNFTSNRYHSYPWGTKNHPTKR
Briefly: Selectivity interaction (KinomeScan (DiscoverX)) EUB0000695a NEK10. Particulars: at 100 nM.

For test [3], the target named is Serine/threonine-protein kinase PAK 1 (Homo sapiens) (UniProt Q13153). Briefly: Selectivity interaction (KinomeScan (DiscoverX)) EUB0000695a PAK1. The note with it: at 100 nM.
Chain of Serine/threonine-protein kinase PAK 1 (Homo sapiens) (Q13153 whole entry): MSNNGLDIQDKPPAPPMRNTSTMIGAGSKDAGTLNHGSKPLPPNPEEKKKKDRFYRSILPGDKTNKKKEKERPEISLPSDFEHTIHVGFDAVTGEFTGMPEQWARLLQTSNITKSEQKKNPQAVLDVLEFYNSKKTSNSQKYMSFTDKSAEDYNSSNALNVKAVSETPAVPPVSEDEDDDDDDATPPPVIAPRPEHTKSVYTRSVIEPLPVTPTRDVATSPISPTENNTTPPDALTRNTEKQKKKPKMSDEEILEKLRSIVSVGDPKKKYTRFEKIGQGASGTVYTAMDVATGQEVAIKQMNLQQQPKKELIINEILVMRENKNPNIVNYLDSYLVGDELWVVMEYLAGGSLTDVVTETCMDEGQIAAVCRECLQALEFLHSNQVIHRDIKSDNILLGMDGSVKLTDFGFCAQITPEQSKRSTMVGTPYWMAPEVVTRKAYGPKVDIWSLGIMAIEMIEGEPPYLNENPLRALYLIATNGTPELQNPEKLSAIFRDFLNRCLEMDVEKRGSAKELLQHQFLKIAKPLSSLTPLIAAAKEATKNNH
For test [4], the target named is RAC-beta serine/threonine-protein kinase (Homo sapiens) (UniProt P31751). Description: Selectivity interaction (Rxn Biology Kinase assay) EUB0001632a AKT2. Particulars: at 10 µM.
Chain of RAC-beta serine/threonine-protein kinase (Homo sapiens) (P31751 whole entry): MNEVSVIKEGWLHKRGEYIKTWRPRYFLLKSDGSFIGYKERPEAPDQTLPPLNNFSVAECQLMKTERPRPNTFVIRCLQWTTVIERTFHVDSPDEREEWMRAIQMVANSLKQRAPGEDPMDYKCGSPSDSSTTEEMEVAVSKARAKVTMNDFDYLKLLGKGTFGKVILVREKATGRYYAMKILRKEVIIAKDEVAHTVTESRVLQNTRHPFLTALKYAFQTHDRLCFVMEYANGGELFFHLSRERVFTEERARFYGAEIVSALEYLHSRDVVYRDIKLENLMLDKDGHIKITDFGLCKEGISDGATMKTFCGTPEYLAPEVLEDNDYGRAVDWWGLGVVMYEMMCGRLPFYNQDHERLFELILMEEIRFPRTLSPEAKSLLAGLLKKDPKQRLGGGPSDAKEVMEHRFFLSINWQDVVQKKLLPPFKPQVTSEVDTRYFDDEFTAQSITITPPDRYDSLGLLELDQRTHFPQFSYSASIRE
The target in test [5] is T3, Tyrosine-protein kinase ITK/TSK (Homo sapiens) (UniProt Q08881).
T3 sequence (whole entry): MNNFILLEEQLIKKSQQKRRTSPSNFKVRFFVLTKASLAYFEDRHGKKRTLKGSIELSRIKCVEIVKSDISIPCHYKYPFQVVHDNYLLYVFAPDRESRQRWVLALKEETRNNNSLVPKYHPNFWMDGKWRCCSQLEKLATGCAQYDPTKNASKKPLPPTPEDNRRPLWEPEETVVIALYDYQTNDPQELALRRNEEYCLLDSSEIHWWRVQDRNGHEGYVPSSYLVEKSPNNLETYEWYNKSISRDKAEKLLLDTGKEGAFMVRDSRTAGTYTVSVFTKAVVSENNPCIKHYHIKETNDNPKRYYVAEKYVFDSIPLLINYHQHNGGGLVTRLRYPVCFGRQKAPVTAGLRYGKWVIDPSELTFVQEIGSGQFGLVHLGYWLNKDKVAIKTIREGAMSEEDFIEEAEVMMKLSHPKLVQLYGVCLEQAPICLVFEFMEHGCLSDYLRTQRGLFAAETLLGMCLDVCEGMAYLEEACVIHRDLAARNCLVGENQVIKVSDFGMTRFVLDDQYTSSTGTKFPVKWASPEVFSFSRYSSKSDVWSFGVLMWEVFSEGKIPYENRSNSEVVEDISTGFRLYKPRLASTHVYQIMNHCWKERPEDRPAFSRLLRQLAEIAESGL
Description: Selectivity interaction (Kinase panel (Z-LYTE Assay)) EUB0001632a ITK. Particulars: at 10 µM.

In test [6] the target is Death-associated protein kinase 3 (Homo sapiens) (UniProt O43293). Briefly: Selectivity interaction (SelectScreen profiling (Invitrogen)) EUB0000607a DAPK3. Particulars: at 2 µM.
Chain of Death-associated protein kinase 3 (Homo sapiens) (O43293 whole entry, looked up): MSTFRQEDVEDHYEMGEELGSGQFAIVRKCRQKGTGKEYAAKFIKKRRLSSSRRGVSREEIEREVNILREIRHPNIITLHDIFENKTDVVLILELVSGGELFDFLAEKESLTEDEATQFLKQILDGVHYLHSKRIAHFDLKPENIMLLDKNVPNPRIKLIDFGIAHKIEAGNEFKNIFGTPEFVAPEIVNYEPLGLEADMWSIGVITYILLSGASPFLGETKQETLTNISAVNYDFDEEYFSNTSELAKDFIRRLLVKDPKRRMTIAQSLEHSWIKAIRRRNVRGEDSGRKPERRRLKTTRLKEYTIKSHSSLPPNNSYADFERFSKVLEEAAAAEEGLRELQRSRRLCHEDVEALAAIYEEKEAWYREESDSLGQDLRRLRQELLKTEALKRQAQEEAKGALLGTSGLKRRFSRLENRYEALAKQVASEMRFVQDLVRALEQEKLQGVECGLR
In test [7] the target is Tyrosine-protein kinase Fer (Homo sapiens) (UniProt P16591). Description: (§1) Selectivity interaction (ActivX KiNativ screen (kinase selectivity in THP-1 cell lysates)) EUB0000639a FER. In kind it is subcellular. The note with it: lysate, at 1 µM.
Chain of Tyrosine-protein kinase Fer (Homo sapiens) (P16591 whole entry, looked up): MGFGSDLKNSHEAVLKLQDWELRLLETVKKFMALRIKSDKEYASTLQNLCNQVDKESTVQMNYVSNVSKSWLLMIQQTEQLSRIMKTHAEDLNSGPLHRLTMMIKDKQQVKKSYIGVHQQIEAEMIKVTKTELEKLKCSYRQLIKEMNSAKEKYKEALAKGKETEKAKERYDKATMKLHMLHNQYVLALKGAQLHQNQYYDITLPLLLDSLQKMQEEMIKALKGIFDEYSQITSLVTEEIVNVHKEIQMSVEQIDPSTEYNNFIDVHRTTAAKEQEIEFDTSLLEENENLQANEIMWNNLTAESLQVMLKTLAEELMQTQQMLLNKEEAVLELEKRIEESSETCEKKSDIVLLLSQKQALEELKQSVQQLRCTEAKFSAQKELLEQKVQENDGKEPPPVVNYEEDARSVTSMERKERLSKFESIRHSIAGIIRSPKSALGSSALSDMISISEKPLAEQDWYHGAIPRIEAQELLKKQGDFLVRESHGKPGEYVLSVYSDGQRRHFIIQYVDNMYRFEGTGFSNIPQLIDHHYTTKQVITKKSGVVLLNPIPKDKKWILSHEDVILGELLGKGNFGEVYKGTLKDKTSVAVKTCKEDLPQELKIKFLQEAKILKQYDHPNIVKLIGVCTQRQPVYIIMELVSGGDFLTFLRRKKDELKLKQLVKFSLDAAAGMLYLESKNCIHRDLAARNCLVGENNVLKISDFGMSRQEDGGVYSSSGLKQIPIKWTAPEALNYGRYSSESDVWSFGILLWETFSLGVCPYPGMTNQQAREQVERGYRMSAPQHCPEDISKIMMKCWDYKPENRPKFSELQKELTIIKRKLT
For test [8] the target is unchanged. The test is described as §1. In kind it is subcellular. Particulars: lysate, at 0.04 µM.
For test [9], the target named is Cyclin-dependent kinase 2 (Homo sapiens, UniProt P24941). Briefly: Selectivity interaction (ActivX KiNativ screen (kinase selectivity in THP-1 cell lysates)) EUB0000639a CDK2. In kind it is subcellular. Particulars: lysate, at 0.04 µM.

Chain of Aurora kinase A (O14965 whole entry): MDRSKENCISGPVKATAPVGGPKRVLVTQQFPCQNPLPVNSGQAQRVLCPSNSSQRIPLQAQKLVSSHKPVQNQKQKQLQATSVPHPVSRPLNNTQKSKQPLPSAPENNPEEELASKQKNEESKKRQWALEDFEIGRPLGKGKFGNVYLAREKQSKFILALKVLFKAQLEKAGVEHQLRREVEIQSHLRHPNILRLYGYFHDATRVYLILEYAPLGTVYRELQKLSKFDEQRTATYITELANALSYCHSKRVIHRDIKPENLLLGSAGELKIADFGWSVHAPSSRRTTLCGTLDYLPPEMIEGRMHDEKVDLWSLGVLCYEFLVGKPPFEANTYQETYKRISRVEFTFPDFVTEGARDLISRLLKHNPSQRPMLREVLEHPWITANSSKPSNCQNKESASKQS

In the case of `CCc1cc(Nc2nccc(-c3c(-c4ccc(OC)c(C(=O)Nc5c(F)cccc5F)c4)nc4ccccn34)n2)c(OC)cc1N1CCC(N2CCN(S(C)(=O)=O)CC2)CC1`, the IC50 on Aurora kinase A was above 1.5 µM.
With `Nc1cnc(N2CCc3cc(S(=O)(=O)Nc4c(F)cc(Cl)cc4F)cc(N4CCCC4=O)c32)nc1` [TP-020n], the % of control in [1] was 100%.
On to `Cc1cc(F)c(C(=O)Nc2cccc(-c3nncn3C(C)C)n2)cc1-n1cnc(C2CC2)c1`, for which the values for the % of control in test [2] and in test [3] were 84% and 100%, respectively.
Regarding `Cn1cc(-n2cnc3c(NCc4nc5cc(Cl)c(Cl)cc5[nH]4)nc(N4CCOCC4)nc32)cn1`, in [4], the % of inhibition was 1.65%. The % of control in test [5] was -0.395%.
As to `CNC(=O)Nc1ccc(-c2nc(N3CC4CCC(C3)O4)c3cnn(C4CCC5(CC4)OCCO5)c3n2)cc1`, in [6], the % of inhibition stood at 2%.
Consider `CC[C@@H]1[C@H](F)C(=O)N[C@@H]1COc1nccc2cc(C(N)=O)c(OC)cc12` [ZIMLOVISERTIB], for which the figures for the % of inhibition in [7], in test [8] and in test [9] were -8.9%, -11.5% and -1.2%, respectively.
